Here are results for three compounds from patent US9393292B2, “Methods for inducing selective apoptosis” (priority 2010, dated 2016).

The test system of data set [1] is F-Casp9M.I.GFPhigh-transduced T cells. As to the kind of experiment: Annexin-V/7-AAD staining and microscopy of F-Casp9M.I.GFPhigh-transduced T cells after CID. The format is cell-based, human. The conditions noted are these: zVAD-fmk 100 μM for 1 hour prior to adding CID.
For data set [2], the system named is gene-modified allodepleted cells. As to the kind of experiment: Induction of apoptosis with AP20187 in gene-modified allodepleted cells (annexin V/7-AAD). The format is cell-based, human. Here is the method:
(§1) Suicide gene functionality was assessed by adding a small molecule synthetic homodimerizer, AP20187 (Ariad Pharmaceuticals; Cambridge, Mass.), at 10 nM final concentration the day following CD19 immunomagnetic selection. Cells were stained with annexin V and 7-amino-actinomycin (7-AAD)(BD Pharmingen) at 24 hours and analyzed by flow cytometry. Cells negative for both Annexin V and 7-AAD were considered viable, cells that were annexin V positive were apoptotic, and cells that were both annexin V and 7-AAD positive were necrotic. The percentage killing induced by dimerization was corrected for baseline viability as follows: Percentage killing=100%−(% Viability in AP20187-treated cells÷% Viability in nontreated cells).
Cells were maintained in T cell medium containing 50 U/ml IL-2 until 22 days after transduction. A portion of cells was reactivated on 24-well plates coated with […] OKT3 and 1 μg/ml anti-CD28 (Clone CD28.2, BD Pharmingen, San Jose, Calif.) for 48 to 72 hours. CD19 expression and suicide gene function in both reactivated and non-reactivated cells were measured on day 24 or 25 post transduction.

The subject of data set [3] is iCasp9M.IRES.IL-12-transduced cells. As to the kind of experiment: IL-12 ELISA of culture supernatant of iCasp9M.IRES.IL-12-transduced EBV-CTLs after CID. The conditions noted are these: after 10 nM CID; detection limit 7.8 pg/mL. The format is cell-based, human. Background: In an ELISA, binding on a coated surface is turned into a signal by an enzyme label.
Data set [4] relates to iCasp9M.IRES.GFPhigh-transduced CTLs. As to the kind of experiment: SCID mouse-human xenograft model: human CD3+/GFP+ T cells in tumors after CID. The format is in vivo. The note with it: single dose of CID (50 μg AP20187 intraperitoneally); tumors analyzed three days later; versus carrier; listed as dimerizer. Background: Xenograft models place foreign cells or tissue in a host animal.

The test system of data set [5] is non-transduced cells. As to the kind of experiment: Viability of non-transduced cells with AP20187. The note with it: non-transduced cells (n=6). Format: cell-based, human. How it is done:
as §1
The day following immunomagnetic selection, 10 nM of the chemical inducer of dimerization, AP20187, was added to induce apoptosis, which appeared within 24 hours. […] Killing efficiency after correction for baseline viability was about 92.9%±3.8%. Large-scale CD19 selection produced cells that were killed with similar efficiency as small-scale selection: mean viability with and without AP20187, and percentage killing, in large and small scale were about 3.9%, about 84.0%, about 95.4% (n=3) and about 6.6%, about 79.3%, about 91.4% (n=5) respectively. […]

Data set [6] has as its system iCasp9-ΔCD19-transduced MSCs. As to the kind of experiment: In vivo killing of iCasp9-transduced MSCs in SCID mice (luminescence imaging, qPCR). Details: species or system mouse. (In general: In qPCR the cycle at which signal appears reflects the starting amount.)
The subject of data set [7] is EBV-specific and CMV-specific T cells. As to the kind of experiment: Pentamer analysis of virus-specific T cells after AP20187 treatment of allostimulated cells. Format: cell-based, human. The conditions noted are these: 3 weeks post transduction; 4 days allogeneic PBMC; 10 nM AP20187. How it is done:
In some experiments, cells also were cultured for 3 weeks post transduction and stimulated with 30G-irradiated allogeneic PBMC at a responder:stimulator ratio of 1:1. After 4 days of co-culture, a portion of cells was treated with 10 nM AP20187. Killing was measured by annexin V/7-AAD staining at 24 hours, and the effect of dimerizer on bystander virus-specific T cells was assessed by pentamer analysis on AP20187-treated and untreated cells.
An observation of note was that many virus-specific T cells were spared when dimerizer was used to deplete gene-modified cells that have been re-activated with allogeneic PBMC, rather than by non-specific mitogenic stimuli. […] Gene-modified allodepleted cells were maintained in culture for 3 weeks post-transduction to allow transgene down-modulation. Cells were stimulated with allogeneic PBMC for 4 days, following which a portion was treated with 10 nM AP20187. The frequency of EBV-specific T cells (see FIG. 14A) and CMV-specific T cells (see FIG. 14B) were quantified by pentamer analysis before allostimulation, after allostimulation, and after treatment of allostimulated cells with dimerizer. The percentage of virus-specific T cells decreased after allostimulation. Following treatment with dimerizer, virus-specific T cells were partially and preferentially retained.

In data set [8] the test system is iCasp9-transduced MSCs. As to the kind of experiment: Apoptosis of undifferentiated iCasp9-transduced MSCs after CID (annexin V-PE/7-AAD FACS). Format: cell-based, human. How it is done:
Undifferentiated MSCs. The chemical inducer of dimerization (CID) (AP20187; ARIAD Pharmaceuticals, Cambridge, Mass.) was added at 50 nM to iCasp9-transduced MSCs cultures in complete medium. Apoptosis was evaluated 24 hours later by FACS analysis, after cell harvest and staining with annexin V-PE and 7-AAD in annexin V binding buffer (BD Biosciences, San Diego, Calif.). Control iCasp9-transduced MSCs were maintained in culture without exposure to CID.

Data set [9] concerns CD3+CD19+ T cells. As to the kind of experiment: In vitro exposure to AP1903 of patient CD3+CD19+ T cells 5 months after treatment. The format is cell-based, human. The conditions noted are these: patient 2, FACS and quantitative PCR.
The conditions of data set [10]: cited from earlier work.
Where [11] appears, read: two injections of 50 μg of CID 24 hours apart, seven days after implantation.

Residues, ends and D or L forms follow the SMILES beside them. *: point of attachment. Cbz = O=C(OCc1ccccc1)*; CH2F = FC* Some results are limits rather than exact numbers.

In the case of `COC(=O)C[C@H](NC(=O)[C@H](C)NC(=O)[C@@H](NC(=O)OCc1ccccc1)C(C)C)C(=O)CF` [zVAD-fmk] (Cbz-Val-Ala-Asp(OMe)-CH2F), the CID-induced apoptosis result in data set [1] is recorded as “inhibited”.
`CC[C@H](C(=O)N1CCCC[C@H]1C(=O)O[C@H](CCc1ccc(OC)c(OC)c1)c1cccc(OCC(=O)NCC(CNC(=O)COc2cccc([C@@H](CCc3ccc(OC)c(OC)c3)OC(=O)[C@@H]3CCCCN3C(=O)[C@@H](CC)c3cc(OC)c(OC)c(OC)c3)c2)CN(C)C)c1)c1cc(OC)c(OC)c(OC)c1` [AP20187]: the cells remaining viable result in [2] (10 nM AP20187, day after CD19 selection, 24 hours) is listed as “about 5.5%±2.5%”. In addition, in data set [2] (listed as small-molecule dimerizer), the “apoptosis / elimination of iCasp9-modified T cells after dimerizer (summary statements)” value is recorded as greater than 90%. Moreover, the “IL-12 in the supernatant” value in [3] is reported as less than 7.8 pg/mL. Further, in data set [4], the “reduction in the number of human CD3+/GFP+ T cells” value is recorded as “more than 99%”. Besides, in data set [5], the “viability with AP20187” value is “about 86%±9%”. Besides, the “killing / depletion of iCasp9-positive cells (qPCR)” value in data set [6] (1:1 mixture of doubly and singly transduced MSCs, two doses of CID) is given as greater than 99%. Moreover, in data set [6] (mouse, in vivo), the “proportion of surviving iCasp9-positive cells” value was 0.7 % of the original population. In [6] (setting [11]), the “luminescence signal of MSCs transduced with iCasp9” value is recorded as “quickly killed” and the “luminescence signal of cells negative for iCasp9” value is “not affected”. Moreover, in data set [7], the “viral reactive subpopulations (HLA pentamers, EBV and CMV)” value is listed as “spares (and thereby enriches) viral reactive subpopulations”. Besides, the “annexin positive, iCasp9-CD19-positive cells (iCasp pos/CID)” value in [8] (50 nM CID, 24 hours, FACS example) was “Ninety-three”. In addition, the “selected cells apoptotic after exposure to CID” value in [8] (magnetic immunoselection of iCasp9-CD19-positive cells) is on record as “More than 95%”.
For the compound `CC[C@H](C(=O)N1CCCC[C@H]1C(=O)O[C@H](CCc1ccc(OC)c(OC)c1)c1cccc(OCC(=O)NCCNC(=O)COc2cccc([C@@H](CCc3ccc(OC)c(OC)c3)OC(=O)[C@@H]3CCCCN3C(=O)[C@@H](CC)c3cc(OC)c(OC)c(OC)c3)c2)c1)c1cc(OC)c(OC)c(OC)c1` (relative stereo) [AP1903, 2-Piperidinecarboxylic acid, 1-[(2S)-1-oxo-2-(3,4,5-trimethoxyphenyl)butyl]-, 1,2-ethanediylbis[imino(2-oxo-2,1-ethanediyl)oxy-3,1-phenylene[(1R)-3-(3,4-dimethoxyphenyl)propylidene]]ester, [2S-[1(R*),2R[S[S*[1(R*),2R*]]]]]-(9Cl)], the “sensitivity of CD3+CD19+ cells to AP1903 in vitro” value in data set [9] is given as “retain sensitivity”. In addition, in [10] (0.01-1.0 mg/kg dose range, IV infusion over 2 hours), the “mean Cmax / maximal plasma level” value was 10 to 1275 ng/mL. The “plasma levels versus dose” value in data set [10] (0.01-1.0 mg/kg) was “directly proportional to dose”. Besides, the “adverse event considered possibly related to AP1903” value in [10] (1 volunteer at 1.0 mg/kg, 3 minutes after start of infusion, resolved after 32 minutes) is “vasodilatation”. Besides, the serious adverse events entry in data set [10] (Phase 1 study in volunteers) is listed as “No serious adverse events”. Further, in data set [10] (following each treatment, all mild in severity), the “incidence of adverse events” value was “very low”.
